In US11999716B2, “WDR5 inhibitors and modulators” (priority 2018, dated 2024):

Each compound was assayed on MV4:11 human cancer cell lines (assay: Cellular viability / anti-proliferative activity, CellTiter-Glo, 5 day protocol). Conditions: Homo sapiens, MV4-11, 120 h, MV4:11 cells; 5 day incubation; CellTiter-Glo; mean of minimum two replicates; read-out: GI50 on cellular proliferation of MV4:11 human cancer cell lines.
Assay type: cell-based
How it was run: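 Compounds were tested over 22 two-fold dilutions starting at 30 μM in 0.3% DMSO, with 200 cells per well (7200 cells/mL). Viability was measured by CellTiter-Glo luminescence at day 5.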

Row | GI50 | Structure (SMILES)
1 | > 0.938 µM | COc1ccnc(CN2CCc3c(cc(Cn4ccn(C)c4=N)cc3-c3cccnc3C)C2=O)c1 [Example 60, 7-((2-Imino-3-methyl-2,3-dihydro-1H-imidazol-1-yl)methyl)-2-((4-methoxypyridin-2-yl)methyl)-5-(2-methylpyridin-3-yl)-3,4-dihydroisoquinolin-1(2H)-one]
2 | < 0.05 µM | COc1ccnc(CN2CCc3c(cc(Cn4ccn(C(F)F)c4=N)cc3-c3cn(C)nc3C(F)(F)F)C2=O)c1 [Example 61, 7-((3-(Difluoromethyl)-2-imino-2,3-dihydro-1H-imidazol-1-yl)methyl)-2-((4-methoxypyridin-2-yl)methyl)-5-(1-methyl-3-(trifluoromethyl)-1H-pyrazol-4-yl)-3,4-dihydroisoquinolin-1(2H)-one]
3 | 0.572 µM | COc1ccnc(CN2CCc3c(cc(Cn4cc5n(c4=N)CCC5)cc3-c3cn(C)nc3C(F)(F)F)C2=O)c1 [Example 62, 7-((3-Imino-6,7-dihydro-3H-pyrrolo[1,2-c]imidazol-2(51/)-yl)methyl)-2-((4-methoxypyridin-2-yl)methyl)-5-(1-methyl-3-(trifluoromethyl)-1H-pyrazol-4-yl)-3,4-dihydroisoquinolin-1(2H)-one]
4 | 0.274 µM | CCn1cc(-c2cc(Cn3ccn(C)c3=N)cc3c2CCN(Cc2cc(OC)ccn2)C3=O)c(C)n1 [Example 63, 5-(1-Ethyl-3-methyl-1H-pyrazol-4-yl)-7-((2-imino-3-methyl-2,3-dihydro-1H-imidazol-1-yl)methyl)-2-((4-methoxypyridin-2-yl)methyl)-3,4-dihydroisoquinolin-1(2H)-one]
5 | > 0.938 µM | COc1cc(CN2CCc3c(cc(Cn4ccn(C)c4=N)cc3-c3c(C)nn(C)c3C)C2=O)cc(OC)c1 [Example 64, 2-(3,5-Dimethoxybenzyl)-7-((2-imino-3-methyl-2,3-dihydro-1H-imidazol-1-yl)methyl)-5-(1,3,5-trimethyl-1H-pyrazol-4-yl)-3,4-dihydroisoquinolin-1(2H)-one]
6 | < 0.05 µM | COc1ccnc(CN2CCc3c(cc(Cn4ccnc4N)cc3-c3cn(C)nc3C(F)(F)F)C2=O)c1 [Example 65, 7-((2-Amino-1H-imidazol-1-yl)methyl)-2-((4-methoxypyridin-2-yl)methyl)-5-(1-methyl-3-(trifluoromethyl)-1H-pyrazol-4-yl)-3,4-dihydroisoquinolin-1(2H)-one]
7 | < 0.05 µM | CCn1cc(-c2cc(Cn3ccn(C)c3=N)cc3c2CCN([C@@H](C)c2cc(OC)ccn2)C3=O)c(C(F)(F)F)n1 [Example 66, (S)-5-(1-Ethyl-3-(trifluoromethyl)-1H-pyrazol-4-yl)-7-((2-imino-3-methyl-2,3-dihydro-1H-imidazol-1-yl)methyl)-2-(1-(4-methoxypyridin-2-yl)ethyl)-3,4-dihydroisoquinolin-1(2H)-one]
8 | < 0.05 µM | CCn1cc(-c2cc(Cn3ccn(C(F)F)c3=N)cc3c2CCN([C@@H](C)c2cc(OC)ccn2)C3=O)c(C(F)(F)F)n1 [Example 67, (S)-7-((3-(Difluoromethyl)-2-imino-2,3-dihydro-1H-imidazol-1-yl)methyl)-5-(1-ethyl-3-(trifluoromethyl)-1H-pyrazol-4-yl)-2-(1-(4-methoxypyridin-2-yl)ethyl)-3,4-dihydroisoquinolin-1(2H)-one]
9 | 0.333 µM | COc1cc(CN2CCc3c(cc(Cn4ccn(C)c4=N)cc3-c3ccc(C)nc3C)C2=O)cc(OC)c1 [Example 68, 2-(3,5-Dimethoxybenzyl)-5-(2,6-dimethylpyridin-3-yl)-7-((2-imino-3-methyl-2,3-dihydro-1H-imidazol-1-yl)methyl)-3,4-dihydroisoquinolin-1(2H)-one]
10 | 0.077 µM | COc1cc(CN2CCc3c(cc(Cn4ccn(C)c4=N)cc3-c3cn(C)nc3C)C2=O)cc(OC)c1 [Example 70, 2-(3,5-Dimethoxybenzyl)-5-(1,3-dimethyl-1H-pyrazol-4-yl)-7-((2-imino-3-methyl-2,3-dihydro-1H-imidazol-1-yl)methyl)-3,4-dihydroisoquinolin-1(2H)-one]
11 | < 0.05 µM | COc1ccnc([C@H](C)N2CCc3c(cc(Cn4ccn(C)c4=N)cc3-c3cn(C)nc3C(F)(F)F)C2=O)c1 [Example 71, (S)-7-((2-Imino-3-methyl-2,3-dihydro-1H-imidazol-1-yl)methyl)-2-(1-(4-methoxypyridin-2-yl)ethyl)-5-(1-methyl-3-(trifluoromethyl)-1H-pyrazol-4-yl)-3,4-dihydroisoquinolin-1(2H)-one]
12 | < 0.05 µM | COc1ccnc([C@H](C)N2CCc3c(cc(Cn4ccn(C(F)F)c4=N)cc3-c3cn(C)nc3C(F)(F)F)C2=O)c1 [Example 72, (S)-7-((3-(Difluoromethyl)-2-imino-2,3-dihydro-1H-imidazol-1-yl)methyl)-2-(1-(4-methoxypyridin-2-yl)ethyl)-5-(1-methyl-3-(trifluoromethyl)-1H-pyrazol-4-yl)-3,4-dihydroisoquinolin-1(2H)-one]
13 | > 0.938 µM | COc1cc(CN2CCc3c(OCC(F)(F)F)cc(Cn4ccn(C)c4=N)cc3C2=O)cc(OC)c1 [Example 73, 2-(3,5-Dimethoxybenzyl)-7-((2-imino-3-methyl-2,3-dihydro-1H-imidazol-1-yl)methyl)-5-(2,2,2-trifluoroethoxy)-3,4-dihydroisoquinolin-1(2H)-one]
14 | > 0.938 µM | CCn1cc(-c2cc(Cn3ccn(C)c3=N)cc3c2CCN(Cc2cc(C)nn2C)C3=O)c(C(F)(F)F)n1 [Example 74]
15 | > 0.938 µM | COc1cc(CN2CCc3c(OCC4CC4)cc(Cn4ccn(C)c4=N)cc3C2=O)cc(OC)c1 [Example 75, 5-(Cyclopropylmethoxy)-2-(3,5-dimethoxybenzyl)-7-((2-imino-3-methyl-2,3-dihydro-1H-imidazol-1-yl)methyl)-3,4-dihydroisoquinolin-1(2H)-one]
16 | > 0.938 µM | COc1cc(CN2CCc3c(cc(Cn4ccn(C)c4=N)cc3-c3c(C)noc3C)C2=O)cc(OC)c1 [Example 76, 2-(3,5-Dimethoxybenzyl)-5-(3,5-dimethylisoxazol-4-yl)-7-((2-imino-3-methyl-2,3-dihydro-1H-imidazol-1-yl)methyl)-3,4-dihydroisoquinolin-1(2H)-one]
17 | > 0.938 µM | CCn1cc(-c2cc(Cn3ccn(C)c3=N)cc3c2CCN(Cc2cn(C)nc2C)C3=O)c(C(F)(F)F)n1 [Example 77, 2-((1,3-Dimethyl-1H-pyrazol-4-yl)methyl)-5-(1-ethyl-3-(trifluoromethyl)-1H-pyrazol-4-yl)-7-((2-imino-3-methyl-2,3-dihydro-1H-imidazol-1-yl)methyl)-3,4-dihydroisoquinolin-1(2H)-one]
18 | > 0.938 µM | Cc1cc([C@H](C)N2CCc3c(OCC4CC4)cc(Cn4ccn(C)c4=N)cc3C2=O)ccc1F [Example 78, (S)-5-(Cyclopropylmethoxy)-2-(1-(4-fluoro-3-methylphenyl)ethyl)-7-((2-imino-3-methyl-2,3-dihydro-1H-imidazol-1-yl)methyl)-3,4-dihydroisoquinolin-1(2H)-one]
19 | < 0.05 µM | Cc1cc([C@H](C)N2CCc3c(cc(Cn4ccn(C)c4=N)cc3-c3cn(C)nc3C(F)(F)F)C2=O)ccc1F [Example 79, (S)-2-(1-(4-Fluoro-3-methylphenyl)ethyl)-7-((2-imino-3-methyl-2,3-dihydro-1H-imidazol-1-yl)methyl)-5-(1-methyl-3-(trifluoromethyl)-1H-pyrazol-4-yl)-3,4-dihydroisoquinolin-1(2H)-one]
20 | < 0.05 µM | COc1cc(CN2CCc3c(cc(Cn4ccoc4=N)cc3-c3cccnc3C(F)(F)F)C2=O)cc(OC)c1 [Example 80, 2-(3,5-Dimethoxybenzyl)-7-((2-iminooxazol-3(2H)-yl)methyl)-5-(2-(trifluoromethyl)pyridin-3-yl)-3,4-dihydroisoquinolin-1(2H)-one]
21 | 0.155 µM | COc1cc(CN2CCc3c(cc(Cn4ccoc4=N)cc3-c3ccc(F)cc3C)C2=O)cc(OC)c1 [Example 81, 2-(3,5-Dimethoxybenzyl)-5-(4-fluoro-2-methylphenyl)-7-((2-iminooxazol-3(2H)-yl)methyl)-3,4-dihydroisoquinolin-1(2H)-one]
22 | 0.055 µM | COc1cc(CN2CCc3c(cc(CN4CCOC4=N)cc3-c3cccnc3C(F)(F)F)C2=O)cc(OC)c1 [Example 82, 2-(3,5-Dimethoxybenzyl)-7-((2-iminooxazolidin-3-yl)methyl)-5-(2-(trifluoromethyl)pyridin-3-yl)-3,4-dihydroisoquinolin-1(2H)-one]
23 | < 0.05 µM | COc1ccnc(CN2CCc3c(cc(CN4CCOC4=N)cc3-c3cn(C)nc3C(F)(F)F)C2=O)c1 [Example 83, 7-((2-Iminooxazolidin-3-yl)methyl)-2-((4-methoxypyridin-2-yl)methyl)-5-(1-methyl-3-(trifluoromethyl)-1H-pyrazol-4-yl)-3,4-dihydroisoquinolin-1(2H)-one]
24 | < 0.05 µM | COc1ccnc(CN2CCc3c(cc(Cn4ccoc4=N)cc3-c3cn(C)nc3C(F)(F)F)C2=O)c1 [Example 84, 7-((2-Iminooxazol-3(2H)-yl)methyl)-2-((4-methoxypyridin-2-yl)methyl)-5-(1-methyl-3-(trifluoromethyl)-1H-pyrazol-4-yl)-3,4-dihydroisoquinolin-1(2H)-one]
25 | 0.057 µM | COc1ccnc(CN2CCc3c(cc(Cn4ccoc4=N)cc3-c3cn(C)nc3C)C2=O)c1 [Example 85, 5-(1,3-Dimethyl-1H-pyrazol-4-yl)-7-((2-iminooxazol-3(2H)-yl)methyl)-2-((4-methoxypyridin-2-yl)methyl)-3,4-dihydroisoquinolin-1(2H)-one]
26 | 0.74 µM | CCn1cc(-c2cc(CN3CCOC3=N)cc3c2CCN(Cc2cc(OC)ccn2)C3=O)cn1 [Example 86, 5-(1-Ethyl-1H-pyrazol-4-yl)-7-((2-iminooxazolidin-3-yl)methyl)-2-((4-methoxypyridin-2-yl)methyl)-3,4-dihydroisoquinolin-1(2H)-one]

Row | Structure (SMILES) | GI50
27 | COc1cc(CN2CCc3c(OC4CCC4)cc(Cn4ccn(C)c4=N)cc3C2=O)cc(OC)c1 [Example 69, 5-Cyclobutoxy-2-(3,5-dimethoxybenzyl)-7-((2-imino-3-methyl-2,3-dihydro-1H-imidazol-1-yl)methyl)-3,4-dihydroisoquinolin-1(2H)-one] | 0.502 µM
